Measured values taken from patent publication US20070155687A1, “Methods and compositions for altering cell function” (Alltech, Inc., priority 2005, published 2007).

Experiments:
[1] = test system: type II iodothyronine deiodinase, (Dio2); assay: Intestinal gene expression: Dio2; type: in vivo; conditions: mouse intestine; diet 1 ppm Se, 100 days; vs selenium deficient
Source text: (§1) Animal Care. Male C57BL/6J mice were housed singly and started on the experimental diets described below immediately after weaning (21 days of age). The mice were maintained in the Shared Aging Rodent Facility at the William S. Middleton Memorial Veterans Administration Medical Center (Madison, Wis.). Temperature and humidity were maintained at constant levels. Room light was controlled to provide 12-hr cycles of light and dark.
(§2) Experimental diets were created by Harlan Teklad (Madison, Wis.). Selenium content of the diets was determined by Covance Inc. (Madison, Wis.). Five (5) animals were included in each of the following treatment groups: a diet deficient in selenium (SD); a diet supplemented with selenomethionine (SM, obtained from Sigma, St. Louis, Mo.) such that the final selenium content of the diet was one (1) part per million; a diet supplemented with sodium selenite (SS, Sigma) such that the final concentration of selenium in this diet was one (1) part per million; or a diet supplemented with the yeast selenium SEL-PLEX (SP, Alltech, Lexington, Ky), such that the final concentration of selenium in this diet was one (1) part per million. SEL-PLEX. […]
(§3) Tissue sample preparation and microarray analysis. […] For intestinal expression studies, the intestine was flushed twice with saline solution and small intestine was measured and divided in three equal segments. […]

Prohibitin (Phb) = assay: Intestinal gene expression: Prohibitin; type: in vivo; conditions: mouse intestine; diet 1 ppm Se, 100 days; vs selenium deficient; p<0.05
Source text: as §1, §2, §3

[2] = test system: LIM homeobox protein 8 gene (Lhx8); assay: Intestinal gene expression: Lhx8; type: in vivo; conditions: mouse intestine; diet 1 ppm Se, 100 days; vs Se-deficient subjects
Source text: as §1, §2, §3

[3] = test system: sprouty homolog 2 gene (Spry2); assay: Intestinal gene expression: Spry2; type: in vivo; conditions: mouse intestine; diet 1 ppm Se, 100 days; relative to Se-deficient controls
Source text: as §1, §2, §3

CORS-26 = assay: Cerebral cortex gene expression: CORS-26; type: in vivo; conditions: mouse cerebral cortex; diet 1 ppm Se, 100 days; vs selenium deficient
Source text: as §1, §2, §3

[4] = Body weight of mice on selenium diets; type: in vivo, mouse; conditions: diet 1 ppm Se, 100 days; compared across diets incl. selenium deficient diet (FIG. 1)
Source text: as §1
Experimental diets were created by Harlan Teklad (Madison, Wis.). Selenium content of the diets was determined by Covance Inc. (Madison, Wis.). […]
Thus, it was an object of the present invention to determine whether compositions and methods of the present invention could alter the expression levels (e.g., niRNA levels) of various genes. One group of genes analyzed were genes classically associated with selenium. As described above, the expression levels of genes were analyzed between mice with and without dietary selenium, or, between mice fed different sources of selenium) (See, e.g., Table 1, below).

[5] = test system: Glutathione S-transferase, alpha 3 (Gsta3); assay: Intestinal gene expression: Gsta3; type: in vivo; conditions: mouse intestine; diet 1 ppm Se, 100 days; vs Se-deficient diets; negative = down; NS = not significant
Source text: as §1, §2, §3

[6] = test system: Glutathione S-transferase, mu3 (Gstm3); assay: Intestinal gene expression: Gstm3; type: in vivo; conditions: mouse intestine; diet 1 ppm Se, 100 days; vs Se-deficient diets; negative = down; NS = not significant
Source text: as §1, §2, §3

C[Se]CC[C@H](N)C(=O)O [SeM, selenomethionine]
Dio2 expression, down-regulation [1]: no ability to alter the expression levels | Prohibitin (Phb) expression, upregulated (Prohibitin (Phb)): 1.6 fold | Lhx8 expression, upregulated [2]: not significantly different | Spry2 gene expression, reduction [3]: no alteration | CORS-26 expression, reduction in expression (CORS-26): no alteration

O=[Se](O)O [Sod-sel, sodium selenite]
body weights of mice [4]: No significant differences | FC Gsta3 expression [5]: −2.3 fold | FC Gstm3 expression [6]: −2.7 fold
